Measured values as given in US20250134800A1, “Biomass Extract For Skin Applications” (EMBION TECHNOLOGIES SA, priority 2022, published 2025).

Assays:
S. aureus = assay: Inhibitory study on colonized Reconstructed Human Epidermis (RHE), viable count; format: cell-based, Staphylococcus aureus
Excerpt: The principal aim of the present study was to evaluate the potential efficacy of BSG-derived preparations on a more biologically relevant in vitro preclinical model based on colonized Reconstructed Human Epidermis (RHE). The main focus was given to: • I. to counteract Staphylococcus aureus adhesion and its proliferative capacity. The rationale was based on the possibility of the ingredients to balance the inflammatory reaction induced by the bacterium, reducing its adhesion and growth on RHE model (inhibitory study); • II. the prebiotic effect of the 3 preparations versus Staphylococcus epidermidis (prebiotic study). The rationale was based on the possibility of the ingredients to protect and biostimulant the normal skin microbiota; • III. their biological impact on sterile RHE model. The rationale was based on the possibility that the ingredients to enhance or balance the innate immune response.
For this study the following BSG-derived preparations were used: • for inhibitory and ingredient impact effects: P1 at 1%, P3 at 2% and P4 at 4%; • for prebiotic effect: […] at 1%, P3 at 2% and P5 at 1%.
SkinEthic^@ Reconstituted Human Epidermis 0.5 cm^2 is a reconstructed epidermis of normal human keratinocytes. Cells are grown on inert polycarbonate filters in chemically defined medium, for 17 days. The model reproduces epidermal morphology and it has been fully characterized. The good barrier function, batch reproducibility and low variability in terms of permeability for probe molecules have been described in Literature compared to human ex-vivo models. The RHE batch was tested for the absence of HIV1 and 2 antibodies, hepatitis C antibodies and hepatitis B antigen HBs. On cells from the donors, was verified the absence of bacteria, fungus and mycoplasma. The maintenance medium was tested for sterility.
Two days before the test, bacterial strains (S. aureus and S. epidermidis) were daily inoculated onto culture medium (BHI agar plate) and incubated at 37° C. in aerobic conditions for at least 24 h in order to obtain a fresh culture. The day of the colonization, bacterial strains have been resuspended in sterile saline solution at the required concentration range. Each starting bacterial inoculum concentration was checked by spectrophotometric OD measure and adjusted to obtain a range of about 10^7-10^8 UFC/mL (OD=0.1); it was then diluted 10-fold to obtain a final range concentration of 10^3-10^4 UFC/tissue for the inhibitory study and 10^4-10^5 UFC/tissue for prebiotic study. The starting inoculum level was also confirmed by serial decimal dilutions and viable counts on agar plates (BHI).
For both inhibitory and prebiotic RHE were pre-treated twice (overnight and 1 h before colonization respectively with 50 uL and 30 uL) on the apical part (directly spread on tissue surface) and left incubated at 37° C. (with CO2 5%) up to the colonization. Pre-treated RHE dedicated to inhibitory and prebiotic studies were colonized with 30 μL of the bacterial suspension previously obtained (respectively with S. aureus for inhibitory study and S. epidermidis for prebiotic study) and incubated at 37° C. (with CO2 5%) up to the required time point (24 h). RHE sterile were not colonized pre-treated twice (overnight and 1 h before colonization respectively with 50 uL and 30 uL) on the apical part (directly spread on tissue surface) and left incubated at 37° C. (with CO2 5%) up to the required time point (24 h). […]

[1] = test system: Staphylococcus epidermidis ATCC 12228; assay: Microdilution assay in liquid broth, viable count on agar plates; format: cell-based; conditions: positive controls at 4%, up to 24 h
Description: (§1) A microbiological screening study on liquid broth was performed to assess the activity (bacterial growth) of 5 preparations (P1, P2, P3, P4 and P5) on two Staphylococcus species: (1) Staphylococcus aureus (MRSA) ATCC 33591 as potential skin pathogen and (2) Staphylococcus epidermidis ATCC 12228 as commensal strain in healthy skin. With the aim to assess a potential and strain specific antimicrobial or prebiotic activity vs Staphylococcus spp and to validate the hypothesis that the ingredients may have a prebiotic effect (on S. epidermidis) and meanwhile negatively impacting the viability or growth rate (on S. aureus), the experimental results are presented below.
(§2) To assess a potential and strain specific antimicrobial or prebiotic activity vs Staphylococcus spp.: a microdilution assay (viable count on agar plates) in liquid broth was performed using 3 different concentrations, 4%-2%-1% for each ingredient, compared to inulin and glucose as carbon source and prebiotic reference. […]
(§3) The growth rate checked by viable count (CFU/mL) was performed to quantify the number of residual viable cells present in the test cultures and they were then expressed as Log values.

[2] = test system: Staphylococcus aureus (MRSA) ATCC 33591; assay: as above; format: cell-based; conditions: positive controls at 4%, up to 24 h
Description: as §1, §2, §3

[3] = RHE model after 2 days, vs colonized control, P1 1%, P3 2%, P4 4%, Chlorexidine 1%
[4] = RHE model after 2 days, P1 1%, P3 2%, P4 4%, Chlorexidine 1%

Row | Compound | bacterial growth on RHE compared to the colonized control (S. aureus; P3 at 2%, P4 at 4%, REF Chlorexidine 1%) | Apical fraction Log reductions (S. aureus; [3]) [Log] | Homogenate fraction Log reductions (S. aureus; [3]) [Log] | Apical fraction Log (Mean) viable count (S. aureus; [4]) [Log] | Homogenate fraction Log (Mean) viable count (S. aureus; [4]) [Log] | growth compared with inoculum count [1] | growth compared with inoculum count [2]
1 | N=C(NCCCCCCNC(=N)NC(=N)Nc1ccc(Cl)cc1)NC(=N)Nc1ccc(Cl)cc1 [REF, Chlorexidine] | no bacterial growth | >3.26 | >3.00 | <2.00 | <2.00 | – | –
2 | Inulin | – | – | – | – | – | growth similar to the inoculum count | growth similar to the inoculum count
